Test results as given in patent US10577373B2, “TYK2 inhibitors and uses thereof” (Nimbus Lakshmi, Inc., priority 2017, dated 2020).
Read-outs that look alike come from different tables or passages of the source.

Key:
[1] = tested on: IL-12 induced STAT4 phophorylation mediated by Tyk2/JAK2 (heterodimeric complex); assay: IL-12 Induced pSTAT4 in Human PBMC; type: cell-based; settings: 1.7 ng/mL IL-12
Excerpt: The IL-12 Induced pSTAT4 assay evaluates the inhibition of IL-12 induced STAT4 phophorylation mediated by Tyk2/JAK2 (heterodimeric complex).

[2] = tested on: GM-CSF induced STAT5 phosphorylation mediated by the JAK2/JAK2 homdimeric complex; assay: GM-CSF Induced pSTAT5 in Human PBMC
Excerpt: Human PBMC are isolated from buffy coat and are stored frozen for assays as needed.

[3] = Homo sapiens, PBMC, 20 min, read-out: PBMC_GMCSF_pSTAT5 IC50, human PBMC, GM-CSF 5 ng/mL for 20 minutes, pSTAT5
[4] = read-out: PBMC_GMCSF_pSTAT5 IC50, human PBMC, GM-CSF 5 ng/mL for 20 minutes, pSTAT5

Row | SMILES | IC50 [1] | IC50 [2, 3] | IC50 [2, 4] | IC50 ([2]; Homo sapiens, PBMC, 20 min, read-out: PBMC_GMCSF_pSTAT5 IC50)
1 | CNc1cc(Nc2cccnc2OC)nc2c(C(=O)N[C@@H]3CC[C@H]3O)cnn12 [I-396] | < 100 nM | > 50000 nM | – | –
2 | CNc1cc(Nc2cccn(-c3ccc(F)cc3)c2=O)nc2c(C(=O)N[C@H]3C[C@H]3F)cnn12 [I-132] | < 100 nM | > 2500 nM | – | –
3 | [2H]C([2H])([2H])Oc1ncccc1Nc1cc(NC)n2ncc(C(=O)NC3CCC3)c2n1 [I-176] | < 100 nM | > 50000 nM | – | –
4 | CNc1cc(-c2cn(C3CC3)c3ncccc23)nc2c(C(=O)N[C@H]3CC[C@H]3O)cnn12 [I-992, 5-(1-cyclopropyl-1H-pyrrolo[2,3-b]pyridin-3-yl)-N-((1S,2R)-2-hydroxycyclobutyl)-7-(methylamino)pyrazolo[1,5-a]pyrimidine-3-carboxamide] | < 100 nM | > 50000 nM | – | –
5 | CNc1cc(Nc2cccn(-c3nc(C)co3)c2=O)nc2c(C(=O)NC3CC3)cnn12 [I-368] | < 100 nM | > 12500 nM | – | –
6 | CNc1cc(-c2cn(CCN3CCCCC3)c3ncccc23)nc2c(C(=O)N[C@H]3C[C@H]3F)cnn12 [I-585] | < 100 nM | > 12500 nM | – | –
7 | CNc1cc(Nc2cccn(-c3ncc(C)s3)c2=O)nc2c(C(=O)NC3CC3)cnn12 [I-261, N-cyclopropyl-7-(methylamino)-5-((1-(5-methylthiazol-2-yl)-2-oxo-1,2-dihydropyridin-3-yl)amino)pyrazolo[1,5-a]pyrimidine-3-carboxamide] | < 100 nM | > 2500 nM | – | –
8 | CNc1cc(Nc2cccc3ocnc23)nc2c(C(=O)NC3CC3)cnn12 [I-591] | < 100 nM | > 12500 nM | – | –
9 | CNc1cc(Nc2cccn(-c3ncc(C)s3)c2=O)nc2c(C(=O)N[C@@H]3CC[C@@H]3O)cnn12 [I-677] | < 100 nM | – | > 2500 nM | –
10 | CNc1cc(Nc2cccn(CCOC)c2=O)nc2c(C(=O)NC3CCC3)cnn12 [I-269] | < 100 nM | > 50000 nM | – | –
11 | CNc1cc(Nc2cccn([C@H]3CC[C@@](C)(OC)CC3)c2=O)nc2c(C(=O)N[C@H]3C[C@H]3F)cnn12 [I-360] | < 100 nM | > 50000 nM | – | –
12 | CNc1cc(Nc2cccnc2OC)nc2c(C(=O)N[C@H]3C[C@H]3F)cnn12 [I-110] | < 100 nM | > 50000 nM | – | –
13 | CNc1cc(Nc2cccn(-c3ccc(N4CCOCC4)cn3)c2=O)nc2c(C(=O)NC3CCC3)cnn12 [I-163] | < 100 nM | > 2500 nM | – | –
14 | CNc1cc(Nc2cccn(-c3cc(C)on3)c2=O)nc2c(C(=O)N[C@H]3C[C@H]3F)cnn12 [I-161] | < 100 nM | > 12500 nM | – | –
15 | CNc1cc(Nc2cc(C)cn(-c3ccn(C)n3)c2=O)nc2c(C(=O)N[C@H]3C[C@H]3F)cnn12 [I-250] | < 100 nM | > 12500 nM | – | –
16 | CNc1cc(Nc2cccn(-c3ccc(F)cc3)c2=O)nc2c(C(=O)NC3CCC3)cnn12 [I-246] | < 100 nM | > 2500 nM | – | –
17 | CNc1cc(Nc2cccn([C@H]3CC[C@@](C)(OC)CC3)c2=O)nc2c(C(=O)NC3CC3)cnn12 [I-359] | 100 to 500 nM | > 12500 nM | – | –
18 | CNc1cc(Nc2cccn(C3CCCCC3)c2=O)nc2c(C(=O)N[C@@H]3CC[C@@H]3O)cnn12 [I-1000] | < 100 nM | > 50000 nM | – | –
19 | CNc1cc(Nc2cc(Cl)cn(-c3ccc(C4CC4)nn3)c2=O)nc2c(C(=O)NC3CC3)cnn12 [I-333] | < 100 nM | > 12500 nM | – | –
20 | CNc1cc(Nc2cccn(-c3nc(C)co3)c2=O)nc2c(C(=O)N[C@H]3C[C@H]3F)cnn12 [I-369] | < 100 nM | > 50000 nM | – | –
21 | CNc1cc(-c2cn(C(C)C)c3ncccc23)nc2c(C(=O)N[C@@H]3CC[C@H]3O)cnn12 [I-640] | < 100 nM | > 12500 nM | – | –
22 | CNc1cc(Nc2cc(C)cnc2OCCOC)nc2c(C(=O)NC3CCC3)cnn12 [I-282] | 100 to 500 nM | > 2500 nM | – | –
23 | CNc1cc(Nc2cccc(C)c2Cl)nc2c(C(N)=O)cnn12 [I-14] | < 100 nM | > 50000 nM | – | –
24 | CNc1cc(-c2cn(C(C)C)c3ncccc23)nc2c(C(=O)NC3CCC3)cnn12 [I-224] | < 100 nM | > 50000 nM | – | –
25 | CNc1cc(Nc2cccn([C@H]3CCCOC3)c2=O)nc2c(C(=O)NC3CC3)cnn12 [I-352] | < 100 nM | > 50000 nM | – | –
26 | CNc1cc(Nc2cc(C)cnc2OCCOC)nc2c(C(=O)NC3CC3)cnn12 [I-281] | 100 to 500 nM | > 2500 nM | – | –
27 | CNc1cc(Nc2cccnc2OCCOC)nc2c(C(=O)N[C@H]3C[C@H]3F)cnn12 [I-220] | < 100 nM | > 12500 nM | – | –
28 | CNc1cc(Nc2cc(Cl)cn([C@H]3CCCOC3)c2=O)nc2c(C(=O)N[C@@H]3C[C@@H]3F)cnn12 [I-772] | < 100 nM | > 300 nM | – | –

Row | SMILES | IC50 [1] | IC50 [2, 3] | IC50 [2, 4] | IC50 ([2]; Homo sapiens, PBMC, 20 min, read-out: PBMC_GMCSF_pSTAT5 IC50)
29 | [2H]C([2H])([2H])Oc1ncccc1Nc1cc(NC)n2ncc(C(=O)N[C@H]3CC[C@H]3O)c2n1 (stereo in doubt) [I-399, N-((1 S,2R)-2-hydroxycyclobutyl)-5-((2-(methoxy-d3)pyridin-3-yl)amino)-7-(methylamino) pyrazolo[1,5-a]pyrimidine-3-carboxamide] | < 100 nM | – | > 12500 nM | –
30 | CNc1cc(Nc2cccn(C3CCN(CCF)CC3)c2=O)nc2c(C(=O)NCC(C)(C)CO)cnn12 [I-847] | 100 to 500 nM | > 50000 nM | – | –
31 | CNc1cc(Nc2cccn(-c3cn(C)nc3F)c2=O)nc2c(C(=O)NC3CC3)cnn12 [I-606] | 100 to 500 nM | > 12500 nM | – | –
32 | CNc1cc(Nc2cccn(-c3ccc(OC)cn3)c2=O)nc2c(C(=O)NC3CCC3)cnn12 [I-266] | < 100 nM | > 12500 nM | – | –
33 | CNc1cc(Nc2cccn(-c3ccc(OC)cn3)c2=O)nc2c(C(=O)N[C@H]3C[C@H]3F)cnn12 [I-265] | < 100 nM | > 12500 nM | – | –
34 | CNc1cc(Nc2cc(F)cnc2OC)nc2c(C(=O)NCC(C)(C)CO)cnn12 [I-283] | < 100 nM | > 50000 nM | – | –
35 | CNc1cc(Nc2cccc([C@H]3CCCOC3)n2)nc2c(C(=O)N[C@@H]3CC[C@H]3O)cnn12 [I-667] | < 100 nM | > 12500 nM | – | –
36 | CCONC(=O)c1cnn2c(NC)cc(Nc3cccnc3OC)nc12 [I-409, N-ethoxy-5-((2-methoxypyridin-3-yl)amino)-7-(methylamino)pyrazolo[1,5-a]pyrimidine-3-carboxamide] | < 100 nM | > 12500 nM | – | –
37 | CNc1cc(Nc2cccc3ocnc23)nc2c(C(=O)N[C@@H]3CC[C@@H]3O)cnn12 [I-661] | < 100 nM | – | > 12500 nM | –
38 | CNc1cc(Nc2cccn([C@@H]3CCC[C@H](OC)C3)c2=O)nc2c(C(=O)N[C@@H]3C[C@@H]3F)cnn12 [I-840] | < 100 nM | > 50000 nM | – | –
39 | CNc1cc(Nc2cccn(-c3ccc(N4CCOCC4)cc3)c2=O)nc2c(C(=O)N[C@H]3C[C@H]3F)cnn12 [I-135] | < 100 nM | > 2500 nM | – | –
40 | CNc1cc(Nc2cccc(N3CCCC3=O)n2)nc2c(C(=O)NC3CC3)cnn12 [I-7] | < 100 nM | > 12500 nM | – | –
41 | CNc1cc(Nc2cccnc2OC)nc2c(C(=O)NOC(C)(C)C)cnn12 [I-612, N-(tert-butoxy)-5-((2-methoxypyridin-3-yl)amino)-7-(methylamino) pyrazolo[1,5-a]pyrimidine-3-carboxamide] | […] | – | – | > 50000 nM
42 | CNc1cc(Nc2cc(Cl)cn(C3CCN(C)CC3)c2=O)nc2c(C(=O)NC3CC3)cnn12 [I-883] | < 100 nM | > 12500 nM | – | –
43 | CNc1cc(Nc2cc(C)cnc2OC2CC2)nc2c(C(=O)NC3CC3)cnn12 [I-277] | 100 to 500 nM | > 50000 nM | – | –
44 | CNc1cc(Nc2cc(F)cnc2OC2CC2)nc2c(C(=O)NC3CCC3)cnn12 [I-276] | < 100 nM | > 50000 nM | – | –
45 | CNc1cc(Nc2cccn(-c3ncco3)c2=O)nc2c(C(=O)N[C@H]3C[C@H]3F)cnn12 [I-716] | < 100 nM | > 2500 nM | – | –
46 | CNc1cc(-c2cn(C(C)C)c3ncccc23)nc2c(C(N)=O)cnn12 [I-222, 5-(1-isopropyl-1H-pyrrolo[2,3-b]pyridin-3-yl)-7-(methylamino)pyrazolo[1,5-a]pyrimidine-3-carboxamide] | < 100 nM | > 2500 nM | – | –
47 | CNc1cc(-c2cn(C(C)C)c3ncccc23)nc2c(C(=O)N[C@H]3CC[C@@H]3O)cnn12 [I-639] | < 100 nM | – | > 12500 nM | –
48 | CNc1cc(Nc2cccn(C[C@@H]3CCCCO3)c2=O)nc2c(C(=O)N[C@@H]3C[C@@H]3F)cnn12 [I-428] | < 100 nM | > 50000 nM | – | –
49 | CNc1cc(Nc2cc(Cl)cn(-c3cc(C)n(C)n3)c2=O)nc2c(C(=O)NC3CC3)cnn12 [I-314] | < 100 nM | > 2500 nM | – | –
50 | [2H]C([2H])([2H])Oc1ncc(C)cc1Nc1cc(NC)n2ncc(C(=O)N[C@H]3C[C@H]3F)c2n1 [I-259] | < 100 nM | > 12500 nM | – | –
51 | CNc1cc(Nc2cc(Cl)cn(-c3cc(C)n(C)n3)c2=O)nc2c(C(=O)N[C@H]3C[C@H]3F)cnn12 [I-315] | < 100 nM | > 12500 nM | – | –
52 | CNc1cc(-c2cn(C(C)C)c3ncccc23)nc2c(C(=O)NC3CC3)cnn12 [I-223] | < 100 nM | > 12500 nM | – | –
53 | CNc1cc(-c2cn(C(C)C)c3ncc(Cl)cc23)nc2c(C(N)=O)cnn12 [I-272, 5-(5-chloro-1-isopropyl-1H-pyrrolo[2,3-b]pyridin-3-yl)-7-(methylamino) pyrazolo[1,5-a]pyrimidine-3-carboxamide] | < 100 nM | > 12500 nM | – | –
54 | CNc1cc(-c2cn(C3CC3)c3ncccc23)nc2c(C(=O)N[C@@H]3C[C@@H]3F)cnn12 [I-961, 5-(1-cyclopropyl-1H-pyrrolo[2,3-b]pyridin-3-yl)-N-((1R,2S)-2-fluorocyclopropyl)-7-(methylamino)pyrazolo[1,5-a]pyrimidine-3-carboxamide] | < 100 nM | > 50000 nM | – | –
55 | CNc1cc(Nc2cccc([C@@H]3CCCOC3)n2)nc2c(C(=O)N[C@H]3CC[C@@H]3O)cnn12 [I-603] | < 100 nM | > 2500 nM | – | –
